Results published in article PMC8617031, “Development of a BCL-xL and BCL-2 dual degrader with improved anti-leukemic activity,” (Nature Communications, 2021).
Values joined by “and” are separate entries in the source; they are usually repeats but may differ in a detail not shown here. Identical values can stand only once.

Key:
[1] = system: BCL-xL/PROTAC/VCB ternary complex (HiBit-BCL-xL, HaloTag-VHL); experiment: NanoBRET intracellular ternary complex formation in 293T cells, BCL-xL; type: cell-based, human; settings: for NanoBRET signal (610/450 ratio, background-subtracted), Ave, Bcl-xl: Ave of Read1 and Read2, per replicate well; for NanoBRET signal (610/450 ratio, background-subtracted), Read1, Bcl-xl / NanoBRET signal (610/450 ratio, background-subtracted), Read2, Bcl-xl: individual replicate wells
Source text: (§1) Plasmids HaloTag-VHL (Cat. No. CS1679C155) and CMV HiBit (Cat. No. CS1956B03) were purchased from Promega. HiBit-BCL-xL and HiBit-BCL-2 were constructed previously. The two mutants (HiBit-BCL-xL-K157-only and HiBit-BCL-xL-K-ko) were constructed through Gibson assembly method. The primer pair (5′-[…]-3′ and 5′-[…]c[…]-3′) and the template Flag-BCL-xL-K157-only or Flag-BCL-xL-K-ko (pDL2129)[2] were used to clone the BCL-xL-K157-only-containing and BCL-xL-K-ko-containing fragments, respectively. The primer pair (5′-[…]g[…]-3′ and 5′-[…]-3′) and pBit3.1-N (Cat. No. N2361, Promega) were used to clone the vector-containing fragment. The PCR fragments were assembled using NEBuilder® HiFi DNA Assembly Master Mix (Cat. No. E2621, NEB, Ipswich, MA, USA). DNA sequences in all these plasmids were authenticated by automatic sequencing. […] After 24 h, 2 × 10^4 transfected cells were seeded into white 96-well tissue culture plates in Gibco™ Opti-MEM™ I Reduced Serum Medium, No Phenol Red (Cat. No. 11-058-021, Fisher) containing 4% FBS with or without HaloTag NanoBRET 618 Ligand (Cat. No. PRN1662, Promega) and incubated overnight at 37 °C, 5% CO2. The following day, serial diluted compounds were added into the medium and plates were incubated at 37 °C, 5% CO2, for 6 h. After treatment, NanoBRET Nano-Glo Substrate (cat. no. N1662, Promega) was added into the medium, and the contents were mixed by shaking the plate for 30 s before measuring donor and acceptor signals on Biotek plate reader. Dual-filtered luminescence was collected with a 450/50 nm bandpass filter (donor, NanoBiT-BCL-XL protein or NanoBiT-BCL-2 protein) and a 610-nm longpass filter (acceptor, HaloTag NanoBRET ligand) using an integration time of 0.5 s. mBRET ratios were calculated following the NanoBRET™ Nano-Glo® Detection System (Cat. No. N1662, Promega).

[2] = system: BCL-2/PROTAC/VCB ternary complex (HiBit-BCL-2, HaloTag-VHL); experiment: NanoBRET intracellular ternary complex formation in 293T cells, BCL-2; type: cell-based, human; settings: for NanoBRET signal (610/450 ratio, background-subtracted), Ave, Bcl-2: Ave of Read1 and Read2, per replicate well; for NanoBRET signal (610/450 ratio, background-subtracted), Read1, Bcl-2 / NanoBRET signal (610/450 ratio, background-subtracted), Read2, Bcl-2: individual replicate wells
Source text: as §1

Structure (SMILES) | NanoBRET signal (610/450 ratio, background-subtracted), Ave, Bcl-xl ([1]; 0.333 uM) | NanoBRET signal (610/450 ratio, background-subtracted), Read1, Bcl-xl ([1]; 0.333 uM) | NanoBRET signal (610/450 ratio, background-subtracted), Read2, Bcl-xl ([1]; 0.333 uM) | NanoBRET signal (610/450 ratio, background-subtracted), Ave, Bcl-xl ([1]; 1 uM) | NanoBRET signal (610/450 ratio, background-subtracted), Read1, Bcl-xl ([1]; 1 uM) | NanoBRET signal (610/450 ratio, background-subtracted), Read2, Bcl-xl ([1]; 1 uM) | NanoBRET signal (610/450 ratio, background-subtracted), Ave, Bcl-xl ([1]; 3 uM) | NanoBRET signal (610/450 ratio, background-subtracted), Read1, Bcl-xl ([1]; 3 uM) | NanoBRET signal (610/450 ratio, background-subtracted), Read2, Bcl-xl ([1]; 3 uM) | NanoBRET signal (610/450 ratio, background-subtracted), Ave, Bcl-2 ([2]; 0.333 uM) | NanoBRET signal (610/450 ratio, background-subtracted), Read1, Bcl-2 ([2]; 0.333 uM) | NanoBRET signal (610/450 ratio, background-subtracted), Read2, Bcl-2 ([2]; 0.333 uM) | NanoBRET signal (610/450 ratio, background-subtracted), Ave, Bcl-2 ([2]; 1 uM) | NanoBRET signal (610/450 ratio, background-subtracted), Read1, Bcl-2 ([2]; 1 uM) | NanoBRET signal (610/450 ratio, background-subtracted), Read2, Bcl-2 ([2]; 1 uM) | NanoBRET signal (610/450 ratio, background-subtracted), Ave, Bcl-2 ([2]; 3 uM) | NanoBRET signal (610/450 ratio, background-subtracted), Read1, Bcl-2 ([2]; 3 uM) | NanoBRET signal (610/450 ratio, background-subtracted), Read2, Bcl-2 ([2]; 3 uM)
Cc1ncsc1-c1ccc(C(C)NC(=O)C2CC(O)CN2C(=O)C(NC(=O)CCCCCCCC(=O)N2CCN(CC3(C)CCC(c4ccc(Cl)cc4)=C(CN4CCN(c5ccc(C(=O)NS(=O)(=O)c6ccc(NC(CCN7CCOCC7)CSc7ccccc7)c(S(=O)(=O)C(F)(F)F)c6)cc5)CC4)C3)CC2)C(C)(C)C)cc1 (mixture of isomers) [319-C9] | 7.303 and 5.548 and 6.719 | 7.675 and 6.0029 and 7.554 | 6.932 and 5.093 and 5.885 | 6.725 and 7.112 | 7.559 and 11.4906 and 7.902 | 5.8908 and 9.929 and 6.321 | 8.449 and 8.436 and 7.804 | 8.506 and 8.886 and 8.744 | 8.392 and 7.986 and 6.863 | 5.707 and 5.966 and 5.739 | 6.091 and 5.602 and 5.911 | 5.322 and 6.329 and 5.568 | 8.164 and 7.003 and 7.361 | 7.94 and 7.065 and 7.5271 | 8.387 and 6.941 and 7.196 | 7.788 and 8.559 and 8.325 | 7.715 and 8.321 and 8.876 | 7.862 and 8.797 and 7.774
Cc1ncsc1-c1ccc(C(C)NC(=O)C2CC(O)CN2C(=O)C(NC(=O)CCCCCCCCC(=O)N2CCN(CC3(C)CCC(c4ccc(Cl)cc4)=C(CN4CCN(c5ccc(C(=O)NS(=O)(=O)c6ccc(NC(CCN7CCOCC7)CSc7ccccc7)c(S(=O)(=O)C(F)(F)F)c6)cc5)CC4)C3)CC2)C(C)(C)C)cc1 (mixture of isomers) [319-C10] | 7.322 and 6.232 and 5.134 | 7.3 and 6.35 and 5.398 | 7.344 and 6.1137 and 4.87 | 7.385 and 6.082 and 6.14 | 7.049 and 5.821 and 5.916 | 7.722 and 6.342 and 6.364 | 5.435 and 6.539 and 6.402 | 5.79 and 7.0778 and 5.898 | 5.08 and 6.001 and 6.906 | 5.28 and 5.803 and 5.204 | 5.21 and 6.342 and 5.353 | 5.35 and 5.263 and 5.054 | 6.3574 and 6.177 and 5.647 | 6.493 and 6.555 and 5.614 | 6.221 and 5.799 and 5.68 | 5.897 and 6.959 and 6.718 | 5.772 and 7.082 and 6.87 | 6.022 and 6.837 and 6.566
Cc1ncsc1-c1ccc(C(C)NC(=O)C2CC(O)CN2C(=O)C(NC(=O)CCCCCCCCCC(=O)N2CCN(CC3(C)CCC(c4ccc(Cl)cc4)=C(CN4CCN(c5ccc(C(=O)NS(=O)(=O)c6ccc(NC(CCN7CCOCC7)CSc7ccccc7)c(S(=O)(=O)C(F)(F)F)c6)cc5)CC4)C3)CC2)C(C)(C)C)cc1 (mixture of isomers) [319-C11] | 5.756 and 6.621 and 6.037 | 6.07 and 6.538 and 6.1116 | 5.442 and 6.704 and 5.963 | 5.696 and 5.538 and 6.106 | 5.861 and 5.46 and 6.469 | 5.532 and 5.616 and 5.743 | 5.386 and 5.324 and 6.583 | 5.512 and 5.444 and 6.844 | 5.259 and 5.204 and 6.3216 | 4.383 and 4.153 and 4.737 | 4.892 and 4.708 and 4.979 | 3.874 and 3.599 and 4.495 | 4.831 and 5.865 and 5.494 | 4.901 and 5.9757 and 5.389 | 4.762 and 5.754 and 5.599 | 4.755 and 5.241 and 5.369 | 5 and 5.455 and 5.5909 | 4.5106 and 5.027 and 5.1462
